# Paper PMC9426601 (mBio, 2022)
# Like-named read-outs stand apart in the source and are kept apart here.
# Columns and labels:
# [1] = tested on: A(H3N2) 100% PA/I38T; parameters: species or system ferrets (Mustela putorius furo); AUC (area under the curve of nasal wash viral titer): unit not given beside the values; details: in vivo
# [2] = biological target: NA activity of A(H3N2)-PA/I38T (Influenza A virus, UniProt P06818); assay type: biochemical
# [3] = tested on: A(H1N1pdm09) 80% WT: 20% PA/E23K; parameters: species or system ferrets (Mustela putorius furo); AUC (area under the curve of nasal wash viral titer): unit not given beside the values; details: in vivo
# [4] = tested on: A(H3N2)-PA/I38T; assay type: cell-based, influenza A(H3N2) virus
# [5] = tested on: A(H1N1pdm09)-PA/E23K; assay type: cell-based, influenza A(H1N1pdm09) virus
# [6] = tested on: A(H3N2) 80% WT: 20% PA/I38T; parameters: species or system ferrets (Mustela putorius furo); AUC (area under the curve of nasal wash viral titer): unit not given beside the values; details: in vivo
# [7] = tested on: A(H1N1pdm09) 100% PA/E23K; parameters: species or system ferrets (Mustela putorius furo); AUC (area under the curve of nasal wash viral titer): unit not given beside the values; details: in vivo
# [8] = tested on: A(H1N1pdm09)-PA/E23K; assay type: cell-based, influenza A(H1N1pdm09) virus; remark: listed apart in the source
# [9] = tested on: A(H3N2)-PA/I38T; assay type: cell-based, influenza A(H3N2) virus; remark: listed apart in the source
# [10] = biological target: NA activity of A(H1N1pdm09)-PA/E23K (Influenza A virus, UniProt C7FH46); assay type: biochemical; details: read-out: IC50 (nM), neuraminidase inhibitor
# [11] = read-out: Oseltamivir IC50 (nM) YRA
# [12] = read-out: Baloxavir EC50 (nM) FRA
# [13] = read-out: Baloxavir EC50 (nM) YRA
compound,measurement,setting,value
"CCOC(=O)C1=C[C@@H](OC(CC)CC)[C@H](NC(C)=O)[C@@H](N)C1 [Oseltamivir, oseltamivir]",Duration of viral shedding,[1],[…]
same,IC50,[2]; read-out: Oseltamivir IC50 (nM) NIA,0.15 ± 0.11 nM
same,AUC (area under the curve of nasal wash viral titer),[3],26.9 ± 1.7
same,AUC greater than placebo,[3],7%
same,AUC (area under the curve of nasal wash viral titer),[6],19.3 ± 1.8
same,AUC (area under the curve of nasal wash viral titer),[7],26.2 ± 1.3
"O=C1c2c(O)c(=O)ccn2N([C@@H]2c3ccccc3SCc3c2ccc(F)c3F)[C@@H]2COCCN12 [Baloxavir, baloxavir acid]","fold higher EC50 compared to the corresponding pretreatment virus, FRA",[8],17 fold
same,EC50,[8]; [12],20.8 ± 10.2 nM
same,AUC (area under the curve of nasal wash viral titer),[1],23.4 ± 1.4
same,Duration of viral shedding,[1],5.7 ± 0.5 days
same,reduction in AUC relative to placebo,[1],10%
same,reduction in viral shedding relative to placebo,[1],0.6 days
same,AUC (area under the curve of nasal wash viral titer),[3],24.7 ± 2.4
same,Duration of viral shedding,[3],5.3 ± 0.5 days
same,reduction in AUC relative to placebo,[3],6%
same,"fold increase in EC50 compared to the corresponding WT, YRA",[4],100 fold
same,EC50,[4]; [13],40.1 ± 15.6 nM
same,"fold higher EC50 compared to the corresponding pretreatment virus, FRA",[9],77 fold
same,EC50,[9]; [12],46 ± 6.9 nM
same,"fold increase in EC50 compared to the corresponding WT, YRA",[5],9 fold
same,EC50,[5]; [13],2.6 ± 0.07 nM
same,AUC (area under the curve of nasal wash viral titer),[6],18.6 ± 1.4
same,Duration of viral shedding,[6],4.7 ± 0.5 days
same,AUC (area under the curve of nasal wash viral titer),[7],28.6 ± 0.8
same,Duration of viral shedding,[7],6.3 ± 0.5 days
same,rapid reduction in viral load in the first 24 h following treatment,[7],not observed
same,reduction in AUC relative to placebo,[7],no significant difference
CCC(CC)[C@H](NC(C)=O)[C@@H]1[C@H](O)[C@@H](C(=O)O)C[C@H]1N=C(N)N [Peramivir],IC50,"[2]; read-out: IC50 (nM), neuraminidase inhibitor",0.12 ± 0.1 nM
same,IC50,[10],0.17 ± 0.01 nM
